# ChEMBL document CHEMBL1124466, “Synthesis of 5-[1-hydroxy(or methoxy)-2-bromo(or chloro)ethyl]-2'-deoxyuridines and related halohydrin analogues with antiviral and cytotoxic activity” (1989)
# Tests used:
# Assay type in all cases: functional
# Vero = assay: In vitro antiviral activity against herpes simplex virus type-1 in vero cells; conditions: Chlorocebus sabaeus, read-out: ID50 (the source's name)
# L1210 [1] = assay: In vitro cytotoxicity against L1210 cells at a dose 10 ug/mL; conditions: Mus musculus, read-out: Survival
# L1210 [2] = assay: In vitro cytotoxicity against L1210 cells at a dose 50 ug/mL; conditions: Mus musculus, read-out: Survival
# L1210 [3] = assay: Effective dose against L1210 cells.; conditions: Mus musculus, read-out: ED50 (the source's name)
SMILES,IC50 (Vero) [µg/mL],viability at 10 µg/mL (L1210 [1]) [%],viability at 50 µg/mL (L1210 [2]) [%],EC50 (L1210 [3]) [µg/mL]
COC(CBr)c1cn([C@H]2C[C@H](O)[C@@H](CO)O2)c(=O)[nH]c1=O (stereo partly specified),0.1,80.8,11.7,
O=c1[nH]c(=O)n([C@H]2C[C@H](O)[C@@H](CO)O2)cc1C(Br)C(O)I.O=c1[nH]c(=O)n([C@H]2C[C@H](O)[C@@H](CO)O2)cc1C(O)C(Br)I (stereo partly specified),> 10,79.2,40.1,
O=c1[nH]c(=O)n([C@H]2C[C@H](O)[C@@H](CO)O2)cc1C(O)CBr (stereo partly specified),> 10,65.5,23.7,
CCOC(=O)C(Br)C(O)c1cn([C@H]2C[C@H](O)[C@@H](CO)O2)c(=O)[nH]c1=O (stereo partly specified),1,49.7,4.9,11
CCOC(=O)C(I)C(O)c1cn([C@H]2C[C@H](O)[C@@H](CO)O2)c(=O)[nH]c1=O (stereo partly specified),0.1,73.2,10.4,
O=c1[nH]c(=O)n([C@H]2C[C@H](O)[C@@H](CO)O2)cc1C(O)CCl (stereo partly specified),0.1,74,24.3,
N[C@@H](Cc1ccc(N(CCCl)CCCl)cc1)C(=O)O [MELPHALAN],,2.8,0,0.15
Nc1nc2c(ncn2COCCO)c(=O)[nH]1 [ACYCLOVIR],0.01,,,
COC(CCl)c1cn([C@H]2C[C@H](O)[C@@H](CO)O2)c(=O)[nH]c1=O (stereo partly specified),> 10,75,38.8,
